Test results: PMC7058016, “Photoinduced damage of AsLOV2 domain is accompanied by increased singlet oxygen production due to flavin dissociation” (Scientific Reports, 2020)

Target: T1, AsLOV2 (Avena sativa, UniProt O49003, C450A)
T1 construct: gene NPH1-1; LOV2 domain, residues 404-547, N-terminal His10-tag kept (first 31 residues not native), E. coli BL21(DE3)
Assay: co-purified holoprotein; absorption and fluorescence spectra, FMN triplet lifetime, […] kDa filtration
Format: binding
Conditions: 20 mM Tris-HCl pH 7.8, room temperature; before irradiation; no covalent adduct possible

T1 sequence (O49003 entry or part of it C450A): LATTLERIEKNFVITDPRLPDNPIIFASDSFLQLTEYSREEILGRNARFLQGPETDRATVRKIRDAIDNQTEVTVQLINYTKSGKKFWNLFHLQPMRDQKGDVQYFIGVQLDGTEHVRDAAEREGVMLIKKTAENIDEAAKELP

Cc1cc2nc3c(=O)[nH]c(=O)nc-3n(C[C@H](O)[C@H](O)[C@H](O)COP(=O)(O)O)c2cc1C [flavin mononucleotide]
co-purified holoprotein; absorption and fluorescence spectra, FMN triplet lifeti: before irradiation there was no free FMN detected in the filtrate
